Test results taken from ChEMBL document CHEMBL5126545, “Development of inhibitors targeting glycogen synthase kinase-3β for human diseases: Strategies to improve selectivity” (Eur J Med Chem, 2022).
*1 amine or outer side, *2 acyl side, *3 side chain or, on linkers, in order; H or OH if unused. Where a SMILES comes first, the peptide text is derived from it. [ ]: non-standard residue; d: D form. The star is where a group is joined. X1 = C[C@H](N[*:1])C(=O)C1CCC[C@H]1C(=O)[*:2]; Myristoyl = CCCCCCCCCCCCCC(=O)*

Tests used:
[1] = Inhibition of GSK-3beta (unknown origin) using GS-1 as substrate incubated for 20 mins
[2] = target: T1, Glycogen synthase kinase-3 beta (Homo sapiens, UniProt P49841); assay: Inhibition of GSK-3beta (unknown origin) using peptide YRRAAVPPSPSLSRHSSPHQ(pS)EDEEE as substrate incubated for 5 to 60 mins by ADP-Glo kinase assay
T1 sequence (P49841 whole entry): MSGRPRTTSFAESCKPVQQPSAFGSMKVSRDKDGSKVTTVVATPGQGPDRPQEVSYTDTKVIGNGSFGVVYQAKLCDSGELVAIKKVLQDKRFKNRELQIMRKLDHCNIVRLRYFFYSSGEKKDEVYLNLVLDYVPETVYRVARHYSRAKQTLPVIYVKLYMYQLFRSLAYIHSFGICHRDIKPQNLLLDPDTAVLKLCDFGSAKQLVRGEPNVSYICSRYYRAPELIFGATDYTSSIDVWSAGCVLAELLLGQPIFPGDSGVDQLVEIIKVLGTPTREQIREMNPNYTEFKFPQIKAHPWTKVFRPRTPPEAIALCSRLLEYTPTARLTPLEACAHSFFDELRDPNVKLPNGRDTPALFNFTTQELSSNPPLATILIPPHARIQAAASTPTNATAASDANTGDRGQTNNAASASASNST

[3] = target: T1, Glycogen synthase kinase-3 beta; assay: Inhibition of GSK-3beta (unknown origin)
[4] = target: T1, Glycogen synthase kinase-3 beta; assay: Inhibition of GSK-3beta (unknown origin) using biotin-labelled IRS-1 peptide as substrate incubated for 15 mins by ELISA based assay
SH-SY5Y = assay: Neuroprotective activity against human SH-SY5Y cells pretreated for 1 hr followed by muMAbeta42 measured after 72 hrs; type: functional, cell-based
[5] = target: T1, Glycogen synthase kinase-3 beta; assay: Inhibition of human recombinant GSK3-beta
Protein kinase C (PKC) = assay: Inhibition of rat brain PKC using peptide PANKTPPKSPGEPAK as substrate incubated for 20 mins in presence of phosphatidyl serine
[6] = Inhibition of bovine heart PKA using stathmin as substrate incubated for 20 mins by liquid scintillation counter analysis; parameters: species or system Bos taurus
[7] = Inhibition of bovine brain CK2 using stathmin as substrate; parameters: species or system Bos taurus
[8] = Inhibition of CDK-1/cyclin B (unknown origin) using histone H1 as substrate incubated for 20 mins by liquid scintillation counter analysis; parameters: species or system Homo sapiens
[9] = Inhibition of recombinant rabbit GSK-3beta using peptide YRRAAVPPSPSLSRHSSPHQ(pS)EDEEE as substrate incubated for 10 mins; parameters: species or system Oryctolagus cuniculus
[10] = target: T1, Glycogen synthase kinase-3 beta; assay: Inhibition of GSK3-beta (unknown origin) by Kinase-Glo Max assay kit

## CCn1sc(=O)n(CC)c1=O
[1]
  IC50: 25 µM

## COc1ccc(-c2cc(=O)c3c(OC)c([C@@H]4O[C@H](C(=O)NCc5ccccc5)[C@@H](O)[C@H](O)[C@H]4O)c(OC)cc3o2)cc1OC
[2]
  IC50: 16 µM

## Cc1ccc(C(=O)CCl)s1
[3]
  IC50: > 100 µM

## Nc1nccc(CNC(=O)c2ccc3c(c2)/C(=C/Cc2cccc(C(=O)O)c2)C(=O)N3)n1
[3]
  IC50: 0.003 µM

## O=C1c2ccccc2-c2onc3c(N4CCN(c5ccc(O)cc5)CC4)cc(NCCP(=O)(O)O)c1c23
[4]
  IC50: 1 µM

## COc1ccc(-c2cc(=O)c3c(OC)c([C@@H]4O[C@H](C(=O)NC(C)C)[C@@H](O)[C@H](O)[C@H]4O)c(OC)cc3o2)cc1OC
[2]
  IC50: 5 µM

## Cn1sc(=O)n(-c2cccc3ccccc23)c1=O
[1]
  IC50: 3 µM

## CC(C)Oc1cccc(-c2ccc3cnc(C(=O)NCC4CCOCC4)n3c2)c1
[3]
  IC50: 0.072 µM

## O=c1cc(-c2ccc(O)c(O)c2)oc2cc(O)c([C@@H]3O[C@H](CO)[C@@H](O)[C@H](O)[C@H]3O)c(O)c12 [ISOORIENTIN]
SH-SY5Y
  EC50: 47 µM

## O=C(CCl)c1cc(Cl)c(Cl)s1
[3]
  IC50: 3 µM

## CCn1sc(=O)n(CC)c1=S
[1]
  IC50: 20 µM

## COc1cc2c(c(OC)c1OC)-c1c(cc3c(c1OC)OCO3)C[C@H](C)[C@H](C)C2 [WUWEIZISU B]
[5]
  IC50: 0.073 µM

## COc1ccc(-c2cc(=O)c3c(OC)c([C@@H]4O[C@H](C(=O)N[C@@H](C)C(F)(F)F)[C@@H](O)[C@H](O)[C@H]4O)c(OC)cc3o2)cc1OC
[2]
  IC50: 2 µM

## Cn1sc(=O)n(Cc2ccccc2)c1=O
Protein kinase C (PKC)
  IC50: > 100 µM
[6]
  IC50: > 100 µM
[7]
  IC50: > 100 µM
[8]
  IC50: > 100 µM

## COc1ccc(-c2cc(=O)c3c(OC)c([C@@H]4O[C@H](C(=O)N[C@H](C)C(F)(F)F)[C@@H](O)[C@H](O)[C@H]4O)c(OC)cc3o2)cc1OC
[2]
  IC50: 0.6 µM
SH-SY5Y
  EC50: 9 µM

## CN(c1ncnc2[nH]c3cc(Cl)ccc3c12)C1CCCN(C(=O)CC#N)C1 (centres undefined)
[3]
  IC50: 2 µM

## CC(C)Oc1cccc(-c2ccc3[nH]nc(C(=O)NCC4CCOCC4)c3c2)c1
[3]
  IC50: 0.004 µM

## C[S+]([O-])CCCCCCN=C=S (centres undefined)
[3]
  IC50: 70 µM

## COc1ccc(N2CCN(c3cc(NCCC(=O)O)c4c5c(onc35)-c3ccccc3C4=O)CC2)cc1
[4]
  IC50: 18 µM

## COc1cc2c(c(OC)c1OC)-c1c(cc3c(c1OC)OCO3)C[C@@H](C)[C@@H](C)C2 [KADSURANIN]
[5]
  IC50: 0.081 µM

## CCCCCCCCCCCCCC(=O)NCC(=O)N[C@@H](CCCCN)C(=O)N[C@@H](CCC(=O)O)C(=O)N[C@@H](C)C(=O)C1CCC[C@H]1C(=O)N1CCC[C@H]1C(=O)N[C@@H](C)C(=O)N1CCC[C@H]1C(=O)N1CCC[C@H]1C(=O)N[C@@H](C)C(=O)N[C@@H](CO)C(=O)N1CCC[C@H]1C(=O)N1CCC[C@H]1C(N)=O (some centres undefined) (Myristoyl-GKE[X1]PAPPASPP-NH2)
[9]
  IC50: 40 µM

## O=C(O)c1ccc(N2CCN(c3cc(NCCP(=O)(O)O)c4c5c(onc35)-c3ccccc3C4=O)CC2)cc1
[4]
  IC50: 1 µM

## FC(F)(F)c1ccc(/C=N/Nc2nnc3n2N=C(c2ccc(Cl)cc2)CS3)cc1
[10]
  IC50: 0.883 µM

## Cn1cc(C2=C(c3coc4ccccc34)C(=O)NC2=O)c2cc(F)ccc21
[3]
  IC50: 0.0004 µM

## O=C(O)CCNc1cc(N2CCN(c3ccc(F)cc3)CC2)c2noc3c2c1C(=O)c1ccccc1-3
[4]
  IC50: 8 µM
